We go through 29 compounds from US6750244B2, “Compounds active at a novel site on receptor-operated calcium channels useful for treatment of neurological disorders and diseases” (NPS Pharmaceuticals, Inc., priority 1993, dated 2004).

Each structure is given as a SMILES string. Where “and” joins values, the source holds several entries; their conditions need not be identical. Equal entries are not always repeated.

In this test the test system is NMDA receptor. Description: Inhibition of NMDA/glycine-induced increases in intracellular calcium in cultured rat cerebellar granule cells (RCGC). Format: cell-based. Conditions: NMDA/glycine-induced increases in intracellular calcium, cultured rat cerebellar granule cells; read-out: IC50 (μM) vs. NMDA. (Calcium flux is commonly read through the fluorescence of an indicator in the cells.)

`NCCCC(c1ccccc1)c1ccccc1` [Compound 70, 4,4-diphenylbutylamine]: the IC50 came to 1.7 µM.
Turning to `Cc1cccc(C)c1NC(=O)CN1CCN(CCCC(c2ccc(F)cc2)c2ccc(F)cc2)CC1` [lidoflazine, reference compound], the IC50 was over 30 µM.
As for `NCC(c1ccccc1)c1ccccc1` [2,2-diphenylethylamine, reference compound], the figure is 24.5 µM.
As for `C[C@H](NCCC(c1ccccc1)c1ccccc1)c1ccccc1` [(S)-fendiline, reference compound], the IC50 came out at 0.686 µM.
In the case of `OC(CCN1CCCCC1)(c1ccccc1)c1ccccc1` [pridinol, reference compound], the IC50 was 10.7 µM.
The same measure for `COc1ccc(C(CC(C)N)c2ccccc2)cc1` (centres unmarked) [Astra compound, reference compound]: over 30 µM; for `CN(C)CCC(c1ccc(Br)cc1)c1ccccn1` (centres unmarked) [brompheniramine, reference compound]: 138 µM; for `CN(C)C/C=C(/c1ccc(Br)cc1)c1cccnc1` [zimeldine, reference compound]: at least 26 µM.
For the compound `NCCC(c1ccc(F)cc1)c1ccc(F)cc1` [Compound 77, 3,3-bis(4-fluorophenyl)-1-propylamine], the IC50 was 5.5 µM.
As for `NCCC(c1ccc(F)cc1)c1ccccc1F` (centres unmarked) [Compound 76, 3-(2-fluorophenyl)-3-(4-fluorophenyl)-1-propylamine], the figure is 0.73 µM.
As for `O=c1[nH]c2ccccc2n1C1CCN(CCCC(c2ccc(F)cc2)c2ccc(F)cc2)CC1` [pimozide, reference compound], the figure is over 10 µM; as for `NCCc1ccccc1Cc1cccc(F)c1` [Compound 130], 0.851 µM.
The same measure for `CN1CCN(C(c2ccccc2)c2ccccc2)CC1` [cyclizine, reference compound]: 28 µM; for `CC(C)N(CCC(C(N)=O)(c1ccccc1)c1ccccn1)C(C)C` (centres unmarked) [disopyramide, reference compound]: over 100 µM; for `NCCc1ccccc1Cc1ccc(F)cc1` [Compound 131]: 1.23 µM.
With `CC(C)[N+](C)(CCC(C(N)=O)(c1ccccc1)c1ccccc1)C(C)C` [isopropamide, reference compound], the IC50 worked out at 87 µM.
For `CN(C)CCOC(C)(c1ccccc1)c1ccccn1` (centres unmarked) [doxylamine, reference compound], the IC50 was 62 µM.
As for `C[C@@H](NCCC(c1ccccc1)c1ccccc1)c1ccccc1` [(R)-fendiline, reference compound], the figure is 0.719 µM; as for `CCNCCC(c1ccccc1)c1ccccc1` [Compound 68, N-ethyl-3,3-diphenylpropylamine], 2.9 µM.
As to `NCCCOCCCCOCCCNC(=O)Cc1cc(Br)ccc1O` [Compound 15], the IC50 amounted to 4.9 µM.
As for `COc1cccc(C(=CCN)c2cccc(OC)c2)c1` [Compound 116, 3,3-bis(3-methoxyphenyl)-prop-2-ene-1-amine], the figure is 3.6 µM and 4.47 µM; as for `CN(C)CCN(Cc1ccc(Cl)cc1)c1ccccn1` [chloropyramine, reference compound], 76 µM.
As for `NCCCCC(c1ccccc1)c1ccccc1` [Compound 71, 5,5-diphenylpentylamine], the figure is 6.35 µM and 6.4 µM; as for `NCCC(c1ccccc1)C1CCCCC1` (centres unmarked) [Compound 75], 0.94 µM.
As for `CN1CCN(C(c2ccccc2)c2ccc(Cl)cc2)CC1` (centres unmarked) [chlorcyclizine, reference compound], the figure is about 10 µM.
Take `NCCc1ccccc1Cc1ccccc1F` [Compound 129]: the IC50 is 1.26 µM.
Consider `OC(CCN1CCCCC1)(c1ccccc1)C1CCCCC1` (centres unmarked) [trihexyphenidyl, reference compound], for which the IC50 turned out to be 5.13 µM.
As for `CN(C)CCC(c1ccccc1)c1ccccc1` [Compound 73, N,N-dimethyl-3,3-diphenylpropylamine], the figure is 12.6 µM; as for `CCN(CC)CCC(c1ccccc1)c1ccccc1` [Compound 74, N,N-diethyl-3,3-diphenylpropylamine], 27.5 µM.

Broadly, the IC50 is the concentration that inhibits the measured activity by half.
